# From patent publication US20100173832A1, “ANTICANCEROUS POLYMERIC AGENTS” (TECHNION RESEARCH & DEVELOPMENT FOUNDATION LTD., priority 2007, published 2010)
# Non-standard residues stand in square brackets, D forms with d. Residues, ends and D or L forms follow the SMILES beside them. *: point of attachment. Lauroyl = CCCCCCCCCCCC(=O)*; Aoc = NCCCCCCCC(=O)O
# Tested on: N-417 cell line
# Test: XTT cell viability assay, N-417 cells
# Assay type: cell-based
# Settings: human, 24 h
# From the text: Variant small cell lung cancer cells (N-417, SCLC);
# (§1) As a routine cancer cell killing assay for assessment of antitumor activity, 2,3-bis(2-methoxy-4-nitro-5-sulfophenyl)-2H-tetrazolium-5-carboxanilide inner salt (XTT) reduction assay was used, utilizing a commercial kit such as, for example, Cell Proliferation XTT Kit, Cat. No. 20-300-1000, Biological Industries Ltd., Kibbutz Beit Haemek, Israel. XTT is a tetrazolium salt which is cleaved to formazan colored compounds by the mitochondrial dehydrogenase enzymes indicating proper mitochondrial activity in intact cells.
# (§2) Thereafter, a series of increasing concentrations of the polymers were added. After another 24 hours of incubation, XTT reaction solution was added (50 μl of XTT per 100 μl of cell culture medium). The optical density of the cells was measured at 450 nm by ELISA plate reader after 2-4 hours XTT incubation. Cell viability was determined relative to a control having no polymer added thereto.
# “Human breast cancer MCF-7” represents the lethal concentration in μM as measured against MCF-7 cell line, measured as described hereinabove in the cell proliferation XTT assay (column 6 in Table 3); “Human small-cell lung carcinoma N-417” represents the lethal concentration in μM as measured against N-417 cell line, measured as described hereinabove in the cell proliferation XTT assay (column 7 in Table 3);
row,Compound,CC50 [µM]
1,CCCCCCCC(=O)N[C@@H](CCCCN)C(=O)N[C@@H](CCCCN)C(=O)NCCCCCCCCCCCC(=O)N[C@@H](CCCCN)C(N)=O [C8KKNC12KNH2] (HELM PEPTIDE1{[CCCCCCCC(=O)[*:2]].K.K.[O=C(CCCCCCCCCCCN[*:1])[*:2]].K.[am]}$$$$V2.0),> 16

# Tested on: MCF-7 cell line
# Test: not given
# Assay type: cell-based
# Settings: human, 24 h
row,Compound,CC50 [µM]
1,CCCCCCCC(=O)N[C@@H](CCCCN)C(=O)N[C@@H](CCCCN)C(=O)NCCCCCCCCCCCC(=O)N[C@@H](CCCCN)C(N)=O [C8KKNC12KNH2] (HELM PEPTIDE1{[CCCCCCCC(=O)[*:2]].K.K.[O=C(CCCCCCCCCCCN[*:1])[*:2]].K.[am]}$$$$V2.0),> 16

# Tested on: TRAMP-C2 cell line
# Test: not given
# Assay type: cell-based
# Settings: mouse, 24 h
# From the text: Transgenic adenocarcinoma mouse prostate cells (TRAMP-C2);
# as §1, §2
# “Mouse prostate cancer TRAMP-C2” represents the lethal concentration in μM as measured against TRAMP-C2 cell line, measured as described hereinabove in the cell proliferation XTT assay (column 5 in Table 3);
row,Compound,CC50 [µM]
1,CCCCCCCC(=O)N[C@@H](CCCCN)C(=O)N[C@@H](CCCCN)C(=O)NCCCCCCCCCCCC(=O)N[C@@H](CCCCN)C(N)=O [C8KKNC12KNH2] (HELM PEPTIDE1{[CCCCCCCC(=O)[*:2]].K.K.[O=C(CCCCCCCCCCCN[*:1])[*:2]].K.[am]}$$$$V2.0),> 16

# Tested on: not listed separately
# Test: XTT cell viability assay, non-cancerous cardiac fibroblasts (CF)
# Assay type: cell-based, rat
# Settings: primary cardiac fibroblasts (CF); primary non-cancerous rat cardiac fibroblasts, XTT assay; read-out: CF lethal concentration
# From the text: Primary non-cancerous rat cardiac fibroblasts (CF);
# as §1, §2
# “Rat primary cardiac fibroblast CF” represents the lethal concentration in μM as measured against CF cell line, measured as described hereinabove in the cell proliferation XTT assay (column 8 in Table 3);
row,Compound,CC50 at 24 h [µM]
1,NCCCC[C@H](NC(=O)CCCCCCCCCCCNC(=O)[C@H](CCCCN)NC(=O)CCCCCCCCCCCNC(=O)[C@H](CCCCN)NC(=O)CCCCCCCCCCCNC(=O)[C@H](CCCCN)NC(=O)CCCCCCCCCCCNC(=O)[C@H](CCCCN)NC(=O)CCCCCCCCCCCNC(=O)[C@@H](N)CCCCN)C(N)=O [K(NC12K)5NH2],> 16
2,CCCCCCCCCCCC(=O)N[C@@H](CCCCN)C(=O)NCCCCCCCC(=O)N[C@@H](CCCCN)C(=O)N[C@@H](CCCCN)C(=O)NCCCCCCCC(=O)N[C@@H](CCCCN)C(=O)N[C@@H](CCCCN)C(=O)NCCCCCCCC(=O)N[C@@H](CCCCN)C(N)=O [C12(KNC8K)3NH2] (Lauroyl-K[Aoc]KK[Aoc]KK[Aoc]K-NH2),< 16
3,NCCCC[C@H](NC(=O)CCCCCCCCCCCNC(=O)[C@H](CCCCN)NC(=O)CCCCCCCCCCCNC(=O)[C@H](CCCCN)NC(=O)CCCCCCCCCCCNC(=O)[C@H](CCCCN)NC(=O)CCCCCCCCCCCNC(=O)[C@H](CCCCN)NC(=O)CCCCCCCCCCCNC(=O)[C@H](CCCCN)NC(=O)CCCCCCCCCCCNC(=O)[C@H](CCCCN)NC(=O)CCCCCCCCCCCNC(=O)[C@@H](N)CCCCN)C(N)=O [K(NC12K)7NH2],> 16
4,NCCCCCCCCCCCC(=O)N[C@@H](CCCCN)C(=O)NCCCCCCCCCCCC(=O)N[C@@H](CCCCN)C(=O)NCCCCCCCCCCCC(=O)N[C@@H](CCCCN)C(=O)O [(NC12K)3],> 16
5,CCCCCCCCCCCC(=O)N[C@@H](CCCCN)C(=O)NCCCCCCCCCCCC(=O)N[C@@H](CCCCN)C(=O)NCCCCCCCCCCCC(=O)N[C@@H](CCCCN)C(=O)O [C12K(NC12K)2],> 16
6,CCCCCCCCCCCC(=O)N[C@@H](CCCCN)C(=O)NCCCCCCCCCCCC(=O)N[C@@H](CCCCN)C(=O)NCCCCCCCCCCCC(=O)N[C@@H](CCCCN)C(=O)NCCCCCCCCCCCC(=O)N[C@@H](CCCCN)C(N)=O [C12K(NC12K)3NH2],> 16
7,NCCCCCCCCCCCC(=O)N[C@@H](CCCCN)C(=O)NCCCCCCCCCCCC(=O)N[C@@H](CCCCN)C(=O)O [(NC12K)2],> 16
8,NCCCC[C@H](NC(=O)CCCCCCCCCCCNC(=O)[C@H](CCCCN)NC(=O)CCCCCCCCCCCNC(=O)[C@@H](N)CCCCN)C(N)=O [K(NC12K)2NH2],> 16
9,NCCCCCCCCCCCC(=O)N[C@@H](CCCCN)C(=O)NCCCCCCCCCCCC(=O)N[C@@H](CCCCN)C(=O)NCCCCCCCCCCCC(=O)N[C@@H](CCCCN)C(N)=O [(NC12K)3NH2],> 16
10,NCCCCCCCCCCCC(=O)N[C@@H](CCCCN)C(=O)NCCCCCCCCCCCC(=O)N[C@@H](CCCCN)C(=O)NCCCCCCCCCCCC(=O)N[C@@H](CCCCN)C(=O)NCCCCCCCCCCCC(=O)N[C@@H](CCCCN)C(=O)NCCCCCCCCCCCC(=O)N[C@@H](CCCCN)C(N)=O [(NC12K)5NH2],> 16
11,NCCCC[C@H](NC(=O)CCCCCCCCCCCNC(=O)[C@H](CCCCN)NC(=O)CCCCCCCCCCCNC(=O)[C@H](CCCCN)NC(=O)CCCCCCCCCCCNC(=O)[C@@H](N)CCCCN)C(N)=O [K(NC12K)3NH2],> 16
12,CCCCCCCCCCCC(=O)N[C@@H](CCCCN)C(=O)NCCCCCCCCCCCC(=O)N[C@@H](CCCCN)C(N)=O [C12KNC12KNH2],> 16
13,NCCCCCCCCCCCC(=O)N[C@@H](CCCCN)C(=O)NCCCCCCCCCCCC(=O)N[C@@H](CCCCN)C(=O)NCCCCCCCCCCCC(=O)N[C@@H](CCCCN)C(=O)NCCCCCCCCCCCC(=O)N[C@@H](CCCCN)C(=O)NCCCCCCCCCCCC(=O)N[C@@H](CCCCN)C(=O)NCCCCCCCCCCCC(=O)N[C@@H](CCCCN)C(=O)NCCCCCCCCCCCC(=O)N[C@@H](CCCCN)C(=O)NCCCCCCCCCCCC(=O)N[C@@H](CCCCN)C(N)=O [(NC12K)8NH2],> 16
14,NCCCCCCCCCCCC(=O)N[C@@H](CCCCN)C(=O)NCCCCCCCCCCCC(=O)N[C@@H](CCCCN)C(N)=O [(NC12K)2NH2],> 16
15,NCCCC[C@H](NC(=O)CCCCCCCCCCCNC(=O)[C@H](CCCCN)NC(=O)CCCCCCCCCCCNC(=O)[C@H](CCCCN)NC(=O)CCCCCCCCCCCNC(=O)[C@H](CCCCN)NC(=O)CCCCCCCCCCCNC(=O)[C@@H](N)CCCCN)C(N)=O [K(NC12K)4NH2],50
16,NCCCC[C@H](NC(=O)CCCCCCCCCCCNC(=O)[C@H](CCCCN)NC(=O)CCCCCCCCCCCNC(=O)[C@H](CCCCN)NC(=O)CCCCCCCCCCCNC(=O)[C@@H](N)CCCCN)C(=O)O [K(NC12K)3],> 16
17,NCCCC[C@H](NC(=O)CCCCCCCCCCCNC(=O)[C@@H](N)CCCCN)C(N)=O [KNC12KNH2],> 16
18,CCCCCCCCCCCC(=O)N[C@@H](CCCCN)C(=O)NCCCCCCCCCCCC(=O)N[C@@H](CCCCN)C(=O)O [C12KNC12K],> 16
19,NCCCCCCCCCCCC(=O)N[C@@H](CCCCN)C(=O)NCCCCCCCCCCCC(=O)N[C@@H](CCCCN)C(=O)NCCCCCCCCCCCC(=O)N[C@@H](CCCCN)C(=O)NCCCCCCCCCCCC(=O)N[C@@H](CCCCN)C(=O)NCCCCCCCCCCCC(=O)N[C@@H](CCCCN)C(=O)NCCCCCCCCCCCC(=O)N[C@@H](CCCCN)C(N)=O [(NC12K)6NH2],> 16
20,NCCCCCCCCCCCC(=O)N[C@@H](CCCCN)C(=O)NCCCCCCCCCCCC(=O)N[C@@H](CCCCN)C(=O)NCCCCCCCCCCCC(=O)N[C@@H](CCCCN)C(=O)NCCCCCCCCCCCC(=O)N[C@@H](CCCCN)C(=O)O [(NC12K)4],> 16
21,CCCCCCCCCCCC(=O)N[C@@H](CCCCN)C(=O)NCCCCCCCC(=O)N[C@@H](CCCCN)C(=O)N[C@@H](CCCCN)C(=O)NCCCCCCCC(=O)N[C@@H](CCCCN)C(=O)N[C@@H](CCCCN)C(=O)NCCCCCCCC(=O)N[C@@H](CCCCN)C(=O)N[C@@H](CCCCN)C(=O)NCCCCCCCC(=O)N[C@@H](CCCCN)C(N)=O [C12(KNC8K)4NH2] (Lauroyl-K[Aoc]KK[Aoc]KK[Aoc]KK[Aoc]K-NH2),< 16
22,CCCCCCCCCCCC(=O)N[C@@H](CCCCN)C(=O)NCCCCCCCC(=O)N[C@@H](CCCCN)C(=O)N[C@@H](CCCCN)C(=O)NCCCCCCCC(=O)N[C@@H](CCCCN)C(N)=O [C12(KNC8K)2NH2] (Lauroyl-K[Aoc]KK[Aoc]K-NH2),< 16
23,NCCCC[C@H](NC(=O)CCCCCCCCCCCNC(=O)[C@@H](N)CCCCN)C(=O)O [KNC12K],> 16
24,CCCCCCCCCCCC(=O)N[C@@H](CCCCN)C(=O)NCCCCCCCCCCCC(=O)N[C@@H](CCCCN)C(=O)NCCCCCCCCCCCC(=O)N[C@@H](CCCCN)C(N)=O [C12K(NC12K)2NH2],> 16
25,NCCCC[C@H](NC(=O)CCCCCCCCCCCNC(=O)[C@H](CCCCN)NC(=O)CCCCCCCCCCCNC(=O)[C@@H](N)CCCCN)C(=O)O [K(NC12K)2],> 16
26,CCCCCCCCCCCC(=O)N[C@@H](CCCCN)C(=O)NCCCCCCCCCCCC(=O)N[C@@H](CCCCN)C(=O)NCCCCCCCCCCCC(=O)N[C@@H](CCCCN)C(=O)NCCCCCCCCCCCC(=O)N[C@@H](CCCCN)C(=O)NCCCCCCCCCCCC(=O)N[C@@H](CCCCN)C(N)=O [C12K(NC12K)4NH2],37 ± 2.12
27,NCCCCCCCCCCCC(=O)N[C@@H](CCCCN)C(=O)NCCCCCCCCCCCC(=O)N[C@@H](CCCCN)C(=O)NCCCCCCCCCCCC(=O)N[C@@H](CCCCN)C(=O)NCCCCCCCCCCCC(=O)N[C@@H](CCCCN)C(=O)NCCCCCCCCCCCC(=O)N[C@@H](CCCCN)C(=O)NCCCCCCCCCCCC(=O)N[C@@H](CCCCN)C(=O)NCCCCCCCCCCCC(=O)N[C@@H](CCCCN)C(N)=O [(NC12K)7NH2],> 16
28,CCCCCCCCCCCC(=O)N[C@@H](CCCCN)C(=O)NCCCCCCCC(=O)N[C@@H](CCCCN)C(N)=O [C12(KNC8K)NH2],< 16
29,CCCCCCCCCCCC(=O)N[C@@H](CCCCN)C(=O)NCCCCCCCCCCCC(=O)N[C@@H](CCCCN)C(=O)NCCCCCCCCCCCC(=O)N[C@@H](CCCCN)C(=O)NCCCCCCCCCCCC(=O)N[C@@H](CCCCN)C(=O)O [C12K(NC12K)3],> 16
30,NCCCC[C@H](NC(=O)CCCCCCCCCCCNC(=O)[C@H](CCCCN)NC(=O)CCCCCCCCCCCNC(=O)[C@H](CCCCN)NC(=O)CCCCCCCCCCCNC(=O)[C@H](CCCCN)NC(=O)CCCCCCCCCCCNC(=O)[C@H](CCCCN)NC(=O)CCCCCCCCCCCNC(=O)[C@H](CCCCN)NC(=O)CCCCCCCCCCCNC(=O)[C@@H](N)CCCCN)C(N)=O [K(NC12K)6NH2],> 16

# Same assay, conditions: rat, Cancer LC50 Rat primary cardiac fibroblast CF
row,Compound,CC50 at 24 h [µM]
1,CCCCCCCC(=O)N[C@@H](CCCCN)C(=O)N[C@@H](CCCCN)C(=O)NCCCCCCCCCCCC(=O)N[C@@H](CCCCN)C(N)=O [C8KKNC12KNH2] (HELM PEPTIDE1{[CCCCCCCC(=O)[*:2]].K.K.[O=C(CCCCCCCCCCCN[*:1])[*:2]].K.[am]}$$$$V2.0),> 16
